# Results as given in the NIST ThermoML archive (doi:10.1016/j.tca.2008.05.002).
# ± gives the expanded uncertainty stated by the source.
# Test: molar heat capacity at saturation pressure
# Conditions: Small (less than 1 g) adiabatic calorimetry
compound,measurement,setting,value
CCCCn1cc[n+](C)c1.O=[N+]([O-])[O-] [1-butyl-3-methylimidazolium nitrate],molar heat capacity,"289.01 K, Liquid",350.73 ± 1.6 J/K/mol
same,molar heat capacity,"289.03 K, Crystal 2",359.38 ± 1.8 J/K/mol
same,molar heat capacity,"289.45 K, Crystal 2",366.43 ± 1.6 J/K/mol
same,molar heat capacity,"289.95 K, Crystal 2",362.2 ± 1.6 J/K/mol
same,molar heat capacity,"290.42 K, Crystal 2",367.43 ± 1.6 J/K/mol
same,molar heat capacity,"290.84 K, Crystal 2",370.25 ± 2 J/K/mol
same,molar heat capacity,"291.41 K, Liquid",351.54 ± 1.6 J/K/mol
same,molar heat capacity,"291.75 K, Crystal 2",425.39 ± 2 J/K/mol
same,molar heat capacity,"291.98 K, Crystal 2",378.5 ± 1.8 J/K/mol
same,molar heat capacity,"292.18 K, Crystal 2",416.33 ± 4.2 J/K/mol
same,molar heat capacity,"293 K, Crystal 1",432.03 ± 2.8 J/K/mol
same,molar heat capacity,"293.5 K, Crystal 1",380.51 ± 2 J/K/mol
same,molar heat capacity,"293.81 K, Liquid",352.34 ± 1.6 J/K/mol
same,molar heat capacity,"293.98 K, Crystal 1",378.1 ± 1.8 J/K/mol
same,molar heat capacity,"294.33 K, Crystal 1",377.9 ± 1.8 J/K/mol
same,molar heat capacity,"294.87 K, Crystal 1",383.53 ± 1.8 J/K/mol
same,molar heat capacity,"295.97 K, Crystal 1",397.01 ± 1.8 J/K/mol
same,molar heat capacity,"296.14 K, Crystal 1",399.03 ± 1.8 J/K/mol
same,molar heat capacity,"296.21 K, Liquid",353.15 ± 1.6 J/K/mol
same,molar heat capacity,"296.66 K, Crystal 1",410.29 ± 1.8 J/K/mol
same,molar heat capacity,"297.89 K, Crystal 1",432.63 ± 2 J/K/mol
same,molar heat capacity,"298.32 K, Crystal 1",442.09 ± 2 J/K/mol
same,molar heat capacity,"298.61 K, Liquid",353.95 ± 1.6 J/K/mol
same,molar heat capacity,"298.79 K, Crystal 1",458.19 ± 2.2 J/K/mol
same,molar heat capacity,"299.7 K, Crystal 1",486.36 ± 2.2 J/K/mol
same,molar heat capacity,"300.51 K, Crystal 1",519.76 ± 2.4 J/K/mol
same,molar heat capacity,"300.77 K, Crystal 1",538.67 ± 2.6 J/K/mol
same,molar heat capacity,"301.01 K, Liquid",354.76 ± 1.6 J/K/mol
same,molar heat capacity,"301.36 K, Crystal 1",572.08 ± 2.8 J/K/mol
same,molar heat capacity,"302.38 K, Crystal 1",652.97 ± 4.2 J/K/mol
same,molar heat capacity,"302.52 K, Crystal 1",675.3 ± 3.8 J/K/mol
same,molar heat capacity,"302.83 K, Crystal 1",708.51 ± 4.2 J/K/mol
same,molar heat capacity,"303.42 K, Liquid",355.76 ± 1.6 J/K/mol
same,molar heat capacity,"303.87 K, Crystal 1",876.13 ± 7 J/K/mol
same,molar heat capacity,"303.98 K, Crystal 1",909.13 ± 6.2 J/K/mol
same,molar heat capacity,"304.08 K, Crystal 1",926.83 ± 5.2 J/K/mol
same,molar heat capacity,"305.82 K, Liquid",356.57 ± 1.6 J/K/mol
same,molar heat capacity,"308.22 K, Liquid",357.37 ± 1.6 J/K/mol
same,molar heat capacity,"310.14 K, Liquid",358.38 ± 1.6 J/K/mol
same,molar heat capacity,"310.4 K, Liquid",358.58 ± 1.6 J/K/mol
same,molar heat capacity,"310.62 K, Liquid",358.38 ± 1.6 J/K/mol
same,molar heat capacity,"311.19 K, Liquid",358.58 ± 1.6 J/K/mol
same,molar heat capacity,"312.54 K, Liquid",359.18 ± 1.6 J/K/mol
same,molar heat capacity,"313.02 K, Liquid",358.98 ± 1.6 J/K/mol
same,molar heat capacity,"313.34 K, Liquid",359.18 ± 1.6 J/K/mol
same,molar heat capacity,"314.75 K, Liquid",359.99 ± 1.6 J/K/mol
same,molar heat capacity,"315.42 K, Liquid",360.19 ± 1.6 J/K/mol
same,molar heat capacity,"315.54 K, Liquid",359.99 ± 1.6 J/K/mol
same,molar heat capacity,"316.76 K, Liquid",360.59 ± 1.6 J/K/mol
same,molar heat capacity,"317.74 K, Liquid",360.99 ± 1.6 J/K/mol
same,molar heat capacity,"317.82 K, Liquid",360.99 ± 1.6 J/K/mol
same,molar heat capacity,"318.76 K, Liquid",361.6 ± 1.6 J/K/mol
same,molar heat capacity,"319.94 K, Liquid",361.8 ± 1.6 J/K/mol
same,molar heat capacity,"320.21 K, Liquid",362 ± 1.6 J/K/mol
same,molar heat capacity,"320.76 K, Liquid",362.4 ± 1.6 J/K/mol
same,molar heat capacity,"322.14 K, Liquid",362.81 ± 1.6 J/K/mol
same,molar heat capacity,"322.61 K, Liquid",363.01 ± 1.6 J/K/mol
same,molar heat capacity,"322.77 K, Liquid",363.41 ± 1.6 J/K/mol
same,molar heat capacity,"324.34 K, Liquid",363.61 ± 1.6 J/K/mol
same,molar heat capacity,"324.77 K, Liquid",364.01 ± 1.6 J/K/mol
same,molar heat capacity,"325.01 K, Liquid",363.81 ± 1.6 J/K/mol
same,molar heat capacity,"326.54 K, Liquid",364.62 ± 1.6 J/K/mol
same,molar heat capacity,"326.77 K, Liquid",364.62 ± 1.6 J/K/mol
same,molar heat capacity,"327.41 K, Liquid",365.02 ± 1.6 J/K/mol
same,molar heat capacity,"328.73 K, Liquid",365.22 ± 1.6 J/K/mol
same,molar heat capacity,"328.78 K, Liquid",365.42 ± 1.6 J/K/mol
same,molar heat capacity,"329.81 K, Liquid",365.82 ± 1.6 J/K/mol
same,molar heat capacity,"330.78 K, Liquid",366.43 ± 1.6 J/K/mol
same,molar heat capacity,"330.93 K, Liquid",366.23 ± 1.6 J/K/mol
same,molar heat capacity,"332.2 K, Liquid",366.83 ± 1.6 J/K/mol
same,molar heat capacity,"332.78 K, Liquid",367.23 ± 1.6 J/K/mol
same,molar heat capacity,"333.12 K, Liquid",367.03 ± 1.6 J/K/mol
same,molar heat capacity,"334.6 K, Liquid",367.84 ± 1.6 J/K/mol
same,molar heat capacity,"334.78 K, Liquid",368.24 ± 1.6 J/K/mol
same,molar heat capacity,"335.32 K, Liquid",367.84 ± 1.6 J/K/mol
same,molar heat capacity,"336.78 K, Liquid",368.84 ± 1.6 J/K/mol
same,molar heat capacity,"336.99 K, Liquid",368.64 ± 1.6 J/K/mol
same,molar heat capacity,"337.51 K, Liquid",369.04 ± 1.6 J/K/mol
same,molar heat capacity,"338.78 K, Liquid",369.65 ± 1.6 J/K/mol
same,molar heat capacity,"339.71 K, Liquid",369.65 ± 1.6 J/K/mol
same,molar heat capacity,"340.78 K, Liquid",370.45 ± 1.6 J/K/mol
same,molar heat capacity,"341.9 K, Liquid",370.45 ± 1.6 J/K/mol
same,molar heat capacity,"342.78 K, Liquid",371.46 ± 1.6 J/K/mol
same,molar heat capacity,"344.09 K, Liquid",371.46 ± 1.6 J/K/mol
same,molar heat capacity,"344.78 K, Liquid",372.26 ± 1.6 J/K/mol
same,molar heat capacity,"346.29 K, Liquid",372.46 ± 1.6 J/K/mol
same,molar heat capacity,"346.78 K, Liquid",373.27 ± 1.6 J/K/mol
same,molar heat capacity,"348.48 K, Liquid",373.47 ± 1.6 J/K/mol
same,molar heat capacity,"348.78 K, Liquid",374.07 ± 1.6 J/K/mol
same,molar heat capacity,"350.68 K, Liquid",374.28 ± 1.6 J/K/mol
same,molar heat capacity,"350.78 K, Liquid",374.88 ± 1.6 J/K/mol
same,molar heat capacity,"352.78 K, Liquid",375.68 ± 1.6 J/K/mol
same,molar heat capacity,"352.87 K, Liquid",375.48 ± 1.6 J/K/mol
same,molar heat capacity,"354.78 K, Liquid",376.69 ± 1.8 J/K/mol
same,molar heat capacity,"355.06 K, Liquid",376.29 ± 1.6 J/K/mol
same,molar heat capacity,"356.78 K, Liquid",377.7 ± 1.8 J/K/mol
same,molar heat capacity,"357.25 K, Liquid",377.49 ± 1.8 J/K/mol
same,molar heat capacity,"358.78 K, Liquid",378.3 ± 1.8 J/K/mol
same,molar heat capacity,"359.44 K, Liquid",378.3 ± 1.8 J/K/mol
same,molar heat capacity,"360.77 K, Liquid",379.31 ± 1.8 J/K/mol
same,molar heat capacity,"361.63 K, Liquid",379.31 ± 1.8 J/K/mol
same,molar heat capacity,"363.82 K, Liquid",380.11 ± 1.8 J/K/mol
same,molar heat capacity,"366.01 K, Liquid",381.12 ± 1.8 J/K/mol
same,molar heat capacity,"368.19 K, Liquid",382.32 ± 1.8 J/K/mol
